# Legend:
# [1] = molecular target: recombinant human secreted phospholipase A2; conditions: cited from earlier work
# [2] = molecular target: recombinant human secreted phospholipase A2; conditions: guinea pig lung tissue; data from U.S. Pat. No. 5,654,326; read-out: Tissue test secreted PLA2 Apparent KB; cited from earlier work
# [3] = Assay III: Rat Plasma Pharmacokinetics Study (oral bioavailability); type: in vivo, Rat (Fischer 344)
# Description: The bioavailability of the compound of the invention, ((3-(2-amino-1,2-dioxoethyl)-1-((1,1'-biphenyl)-3-ylmethyl)-2-methyl-1H-indol-4-yl)oxy)acetic acid N,N-diethylglycolamido ester, was determined using a Rat Plasma Pharmacokinetics Study:
# The purpose of this assay was to evaluate and compare the oral delivery for selected sPLA2 inhibitors.
# The amount of sPLA2 inhibitor was corrected for free acid equivalents.
# Suspension of sPLA2 inhibitor in 10% Acacia, prepared just prior to dose administration
# Dose: 10 mg/kg (of the parent acid)
# Blood samples (0.8 ml) were obtained at the following times: 0.5, 1, 2, 4, 8 and 24 hours (2 rats/timepoint)
# Plasma was assayed by HPLC to measure concentrations of the different sPLA2 inhibitors (as free acids).
# Cmax (maximal plasma concentrations), and AUC values were determined from the mean plasma concentration-time profiles.
SMILES,"IC50 ([1]; chromogenic assay, 3-4 tests, data from U.S. Pat. No. 5,654,326, read-out: Inhibition of human secreted PLA2 IC50 ± mean deviation (3-4 tests)) [nM]","inhibiting sPLA2 (conclusion in words) ([1]; conclusion of Assay 1, Table I)",Kb [2] [nM],oral bioavailability compared with other esters (in words) ([3]; conclusion from Table 3),"oral bioavailability compared with other esters (in words) ([3]; conclusion from Table 3, listed as compound of formula (I))"
"Cc1c(C(=O)C(N)=O)c2c(OCC(=O)O)cccc2n1Cc1cccc(-c2ccccc2)c1 [Compound of formula (II), ((3-(2-amino-1,2-dioxoethyl)-1-((1,1'-biphenyl)-3-ylmethyl)-2-methyl-1H-indol-4-yl)oxy)acetic acid]",4.33 ± 2.31,highly active in inhibiting sPLA2,57 ± 11,–,–
"CCN(CC)C(=O)COC(=O)COc1cccc2c1c(C(=O)C(N)=O)c(C)n2Cc1cccc(-c2ccccc2)c1 [N,N-diethylglycolamido, ((3-(2-amino-1,2-dioxoethyl)-1-((1,1'-biphenyl)-3-ylmethyl)-2-methyl-1H-indol-4-yl)oxy)acetic acid N,N-diethylglycolamido ester]",–,–,–,unexpectedly more bioavailable than many other esters of the sPLA2 inhibitor,highly bioavailable upon oral administration compared to other common ester type prodrugs

# From patent US6274616A, “N,N-diethylglycolamido ester prodrugs of indole sPLA2 inhibitors” (Eli Lilly and Company, priority 2000, dated 2001)
